According to patent US7115639B2, “Pyrrolidine oxadiazole- and thiadiazole oxime derivatives being oxytocin receptor antagonists” (Applied Research Systems ARS Holding N.V., priority 2001, dated 2006):

Tests used:
[1] = tested on: oxytocin-induced uterine contractions in the rat; experiment: In vivo model for inhibition of uterine contractions; conditions: subcutaneous, NP3S, 5 ml/kg
Experimental: d) In Vivo Model for Inhibition of Uterine Contractions
The assay intends to show the biological effect of tested compounds in an in vivo model of preterm labor, premature birth.
Non-pregnant Charles River CD(SD) BR female rats (9–10 weeks old, 200–250 g) were treated at 18 and 24 hours before the experiment with 250 μg/kg, i.p. diethylstilbestrol (DES). For the assay, the animal was anaesthetised by urethane (1.75 g/kg, i.p.) and placed on an homeothermic operating table. The trachea was isolated and cannulated with a suitable polyethylene (PE) tubing. A midline incision at the hypogastrium level was made and one uterine horn exposed, its cephalic end cannulated with a PE240 tubing and, after filling the internal cavity with 0.2 ml of sterile physiological saline, connected to a “Gemini” amplifying/recording system via a P231D Gould Statham pressure transducer, in, order to measure said pressure. For the i.v. route of administration of the test compounds, one jugular vein was isolated and cannulated with a PE60 tubing connected to a butterfly needle to allow the administration by a dispensing syringe. In the case of intraduodenal administration of the test compounds, the duodenum was isolated and similarly cannulated through a small incision in its wall. One carotid artery was also isolated and cannulated with PE60 catheter and connected to a suitable syringe for blood sample collection (see below). After a stabilization period, the same dose of oxytocin was repeatedly injected intravenously at 30-min intervals. […] Further injections of the same dose of oxytocin were then made for a suitable time after treatment to assess inhibitory effects of the compounds under study. The contractile response of the uterus to oxytocin was quantified by measuring the intrauterine pressure and the number of contractions.
A total of six animals is forming one group which is treated with a given test compound at a given concentration (see above).
The effect of the test compounds were evaluated by comparing pre- and post-treatment pressure values. In addition, at 2, 30, 90 and 210 minutes after test compound administration, a 0.5-ml blood sample was withdrawn from the cannulated carotid artery of each experimental animal. Plasma was obtained by standard laboratory procedure and the resulting samples were stored at −20° C.
The activities of the pyrrolidine derivatives claimed in the formula I were assessed using the above described in vivo biological assay. The values refer to the capacity of the example compound according to formula I to effectively antagonize oxytocin-induced uterine contractions in the rat.

[2] = tested on: oxytocin-induced uterine contractions in the rat; experiment: as above; conditions: subcutaneous, NP3S, 5 ml/kg, 10 mg/kg

SMILES: CO/N=C1/C[C@@H](c2nc(CCO)no2)N(C(=O)c2ccc(-c3ccccc3)cc2)C1 [(3Z,5S)-1-([1,1′-biphenyl]-4-ylcarbonyl)-5-[3-(2-hydroxyethyl)-1,2,4-oxadiazol-5-yl]-3-pyrrolidinone O-methyloxime]
- % Reduction of Uterine Contraction ([1]; 1 mg/kg): −13.2 ± 5.6%
- % Reduction of Uterine Contraction ([1]; 3 mg/kg): −30.2 ± 1.1%
- % Reduction of Uterine Contraction ([1]; 30 mg/kg): −57.5 ± 8.6%
- % Reduction of Uterine Contraction [2]: −39.7 ± 7.2%
- melting point: 141 °C
